Measured values as given in patent US6720480B2, “Maize proteinase inhibitor-like polynucleotides and defense-activated promoter, transformed plants, and methods of use” (Pioneer Hi-Bred International, Inc., priority 2000, dated 2004).
Values joined by “and” are separate entries in the source; they are usually repeats but may differ in a detail not shown here. Equal values may be shown once.

Key:
[1] = test system: nucleotide sequences operably linked to the proteinase inhibitor-like promoter; conditions: HC-toxin 1 μg/ml; Northern analysis, average of 3 repeated experiments
[2] = test system: zmBBI1::GUS (proteinase inhibitor-like promoter); test: Co-bombardment of maize immature embryos with zmBBI1::GUS, GUS fluorometric assay after chemical treatment; assay type: cell-based; conditions: for normalized promoter activity (GUS/Luci), Table 2b: Lucif adj for SA (/0.38); for normalized promoter activity (GUS/Luci), Table 2a: luciferase of sample with no chemicals; for GUS/Luci: Lucif adj for SA and JA (Luci for none); for GUS/Luci / GUS pmol MU/min/ml extract (ave) / GUS pmol MU/min/ml extract (ave), less backg 45.6: Rep 1 and 2; for GUS pmol MU/min/ml extract (ave) / GUS pmol MU/min/ml extract (ave), less backg 45.6: SA 1 mM, JA 0.1 mM; for GUS pmol MU/min/ml extract (ave): 20 h; for GUS pmol MU/min/ml extract (ave), less backg 45.6: second GUS column without own head
Experimental: The activity of the promoter was also studied in the presence of the putative defense activator, zmNPR1. Specifically, maize immature embryos (IE) were co-bombarded with the zmBBI1::GUS construct along with Act::luciferease as an internal standard and either a carrier DNA or an putative defense activators, zmNPR1 (U.S. patent application Ser. No. 09/551,778, filed Apr. 18, 2000, herein incorporated by reference). Particle preparation and DNA coating were carried out as described by Zhang et al.((2000) Plant Cell Reports 19:241-250) except for use of tungsten (1.0 μm) particles and different amounts of DNA: 50 μl zmBBI1::GUS at 0.02 μg/μl, Act::luciferase at 0.1 μg/μl, and 5 μl of the carrier or activator DNA at 1.0 μg/μl. The amount of DNA delivered for each bombardment were 0.33, 0.17, and 1.67 μg for zmBBI1::GUS, Act::luciferase, and the carrier or activator, respectively. The DNA concentration for zmBBI1::GUS was chosen in previous experiments for low background expression. A total of 45 IEs were used for each bombardment. IEs were placed on the osmotic medium (Vain et al. (1993) Plant Cell Reports 12:84-88) for 4 h before bombardment. The distance from the stopping screen to the target was 10 cm and bombardment was done at 650 psi with a PDS 1000/He device (Bio-Rad Laboratories).
After the bombardment the IEs were cultured on the same osmotic medium for 20-24 hr. Subsequently, the 45 IEs were randomly divided into three groups, 15 IEs for each. They were, then, transferred to three new petri dishes (60×25 mm) for chemical treatments. A piece of filter paper had been placed in each petri dish and wetted with 1.25 ml of 560Y liquid medium containing no chemical, 1 mM SA and 0.1 mM JA, respectively. The IEs were cultured again for another 20 h.
Three IEs from each group were then histochemically stained in X-Gluc staining solution (McCabe et al. (1988) Bio/Technology 6:923-926) for overnight at 37° C. The rest of the IEs were subjected to GUS fluorometric and luciferase assays. Fluorometric measurements of GUS activity were performed by using 50 μl protein extract prepared from the 12 IEs of each treatment and quantified in Fluoroskan Ascent FL (Labsystem) for two time points, 10 and 30 min. Luciferase activity was quantified in a Monolight 2010 (Analytical Luminescence Lab) by mixing 20 μl of protein extract with 100 μl of reaction buffer (Dual-Luciferase Reporter Assay System, Promega) and taking the measurements after 10 s. […]

| SMILES | increase in expression level of the reporter sequence linked to the promoter [1] | normalized promoter activity (GUS/Luci), Table 2b ([2]; Rep 1, NPR1+) | normalized promoter activity (GUS/Luci), Table 2a ([2]; Rep 1, NPR1+) | normalized promoter activity (GUS/Luci), Table 2b ([2]; Rep 1, NPR1−) | normalized promoter activity (GUS/Luci), Table 2a ([2]; Rep 1, NPR1−) | normalized promoter activity (GUS/Luci), Table 2b ([2]; Rep 2, NPR1+) | normalized promoter activity (GUS/Luci), Table 2a ([2]; Rep 2, NPR1+) | normalized promoter activity (GUS/Luci), Table 2b ([2]; Rep 2, NPR1−) | normalized promoter activity (GUS/Luci), Table 2a ([2]; Rep 2, NPR1−) | GUS/Luci ([2]; zmNPR1 N) | GUS pmol MU/min/ml extract (ave) ([2]; zmNPR1 N) | GUS pmol MU/min/ml extract (ave), less backg 45.6 ([2]; zmNPR1 N) | GUS/Luci ([2]; zmNPR1 Y) | GUS pmol MU/min/ml extract (ave) ([2]; zmNPR1 Y) | GUS pmol MU/min/ml extract (ave), less backg 45.6 ([2]; zmNPR1 Y) | expression of sequence operably linked to the proteinase inhibitor-like promoter (in words) ([2]; maize immature embryos co-bombarded with zmBBI1::GUS) |
| --- | --- | --- | --- | --- | --- | --- | --- | --- | --- | --- | --- | --- | --- | --- | --- | --- |
| C[C@@H]1NC(=O)[C@H]2CCCN2C(=O)[C@H](CCCCCC(=O)[C@@H]2CO2)NC(=O)[C@@H](C)NC1=O [HC-toxin] | 2 fold | – | – | – | – | – | – | – | – | – | – | – | – | – | – | – |
| CC/C=C\C[C@H]1C(=O)CC[C@@H]1CC(=O)O [JA, jasmonic acid] | – | 3.39 | 3.19 | 8.73 | 6.5 | 3.54 | 3.19 | 11.42 | 11.74 | 11.74 and 6.50 | 62.22 pmol MU/min/ml extract and 58.61 pmol MU/min/ml extract | 16.62 pmol MU/min/ml extract and 13.01 pmol MU/min/ml extract | 3.19 | 55.25 pmol MU/min/ml extract and 54.57 pmol MU/min/ml extract | 9.65 pmol MU/min/ml extract and 8.97 pmol MU/min/ml extract | – |
| O=C(O)c1ccccc1O [SA, salicylic acid] | – | 13.95 | 20.12 | 34.87 | 38.35 | 14.91 | 19.22 | 31.15 | 40.51 | 40.15 and 38.35 | 102.94 pmol MU/min/ml extract and 122.31 pmol MU/min/ml extract | 57.34 pmol MU/min/ml extract and 76.71 pmol MU/min/ml extract | 20.12 and 19.22 | 106.54 pmol MU/min/ml extract and 99.71 pmol MU/min/ml extract | 60.94 pmol MU/min/ml extract and 54.11 pmol MU/min/ml extract | induces expression |
